Entries after “also recorded” stand apart in the source; their conditions may differ.
Legend:
[1] = system: Female mice; experiment: Elevated plus maze in progesterone withdrawal (PWD) model of PMS; format: in vivo; conditions: for Time Open Arm, Mean / Grid Cross, Mean (number of total grid crosses, general locomotor activity) / Time Outside Rail, Mean: THIP 1.25 mg/kg; for Time Open Arm, Mean: tested 40 minutes after injection, 10 min plus maze; for Grid Cross, Mean (number of total grid crosses, general locomotor activity) / Time Outside Rail, Mean: 40 minutes after injection
Experimental: The described model is a hormone withdrawal model of PMS in the rat, based on the prevailing hypothesis that dysphoric mood is predominantly associated with declining hormone levels (i.e., “hormone withdrawal”) in women with PMS.
Female mice (Charles River) were housed in pairs under a 14 hour light and 10 hour dark cycle with food and water ad libitum. All animals were tested during the light portion of the circadian cycle. In female mice, estrous cycle stage was determined by microscopic examination of the vaginal lavage, as described previously (Smith, 1987) and by measures of vaginal impedance (Bartlewski, 1999; Bartos, 1977; Koto, 1987; Koto, 1987) throughout one entire cycle prior to testing. Only females in diestrous were used as subjects.
Progesterone implants were made from silicone tubing (Nalgene Co, 1/16″i.d×1/8″ o.d.) which was cut to size depending on the body weight of the animal (10 mm tubing per 100 g), filled with crystalline progesterone and sealed with silastic medical adhesive (Dow Corning). The sealed capsules were incubated overnight in a solution containing 1% gelatine and 0.9% saline in a water bath (37° C.) with gentle shaking overnight. Sham implants are empty sealed tubes of the same dimensions. Rats were then anesthestized with 2% halothane (2-bromo-2-chloro-1,1,1-trifluroethane) in oxygen and the capsules implanted subcutaneously in the abdomen. Removal of the implants also occurred under the same regime of halothane anesthesia, and implanted s.c. under anesthesia in the abdominal area of the rat (Smith, 1998; Moran, 1998) for 21 days.
Control animals were implanted exactly the same way with empty (sham) silicone capsules. Animals were either sacrificed or tested 24 hrs after removal of the implant (P withdrawal).
On the day of testing, animals were injected with either THIP (1.25 mg/kg) or saline and tested 40 minutes after the injection.
Mice were tested on the plus maze, elevated 50 cm above the floor, in a room with low, indirect incandescent lighting and low noise levels. The plus maze consists of 2 enclosed arms (50×10×40 cm) and 2 open arms (50×10 cm) and is explained in detail in (Pellow, 1985).
The floor of all four arms was marked with grid lines every 25 cm. On the day of testing, each mouse was placed in the testing room for 30-40 minutes prior to testing in order to acclimatise to the situations. At the time of testing, each animal was tested for 10 minutes after exiting a start box in the centre platform of the plus maze. To be considered as an entry into any arm, the mouse must pass the line of the open platform with all four paws. The duration (in seconds) of time spent in the open arm was recorded from the time of entry into the open arm. Decreased time spent in the open arm generally indicates higher levels of anxiety (Pellow, 1985). Other behavioural measures recorded included the duration of time spent (in seconds) beyond the rail. The amount of time that subjects spend in the open portion of the plus maze in the absence of rails is considered to be more sensitive to anxiolytic agents (i.e. agents that would increase the amount of time spent in the open arm) than the amount of time spent in the open arms with rails (Fernandes, 1996). In order to measure general locomotor activity, the number of total grid crosses was counted. Lastly, the duration of time (in sec) spent grooming was also scored. The experimenter was blind to all conditions, and animals were tested in a randomised block design.
Data from the plus maze were analysed in a 2-way ANOVA (implant condition×injection condition) followed by a post-hoc ANOVA and post hoc t-test.

[2] = system: hippocampal cells; conditions: hippocampal cells after progesterone withdrawal; previous work; cited from earlier work
[3] = female control (sham implant) mice

Compound | Reversal of the PWD effect in the plus maze ([1]; PWD mice, dose of 1.25 mg/kg, 1.25 mg/kg) | Time Open Arm, Mean ([1]; female PWD mice (24 hrs after removal of progesterone implant)) [s] | Grid Cross, Mean (number of total grid crosses, general locomotor activity) ([1]; female PWD mice) | Time Outside Rail, Mean ([1]; female PWD mice) [s] | Grid Cross, Mean (number of total grid crosses, general locomotor activity) [1, 3] | Time Outside Rail, Mean [1, 3] [s] | Time Open Arm, Mean [1, 3] [s] | Sensitivity of hippocampal cells to the GABA-potentiating effect [2]
Oc1noc2c1CCNC2 [THIP, THIP (Gaboxadol)] | completely reversed the PWD effect; also recorded: counteract the PWD completely | 157.023 | 83.333 | 29.503 | 52.000 | 10.060 | 38.377 | 
O=C1Nc2ccc(Cl)cc2C(c2ccccc2Cl)=NC1O (centres unmarked) [lorazepam] |  |  |  |  |  |  |  | striking insensitivity

Reference: patent US20040024038A1, “GABA enhancers in the treatment of diseases relating to reduced neurosteroid activity” (H. Lundbeck A/S, priority 2000, published 2004)
